The record followed here is article PMC7556816, “Structural and mechanistic analysis of ATPase inhibitors targeting mycobacterial DNA gyrase” (Journal of Antimicrobial Chemotherapy, 2020).

SMILES strings stand for the structures. pIC50: −log10 of the molar value. Values after ≈ are worked out from the molar mass of the structure shown. Where two headings read alike, the source gives them in different places.

The subject of one experiment is A. baumannii NCTC 13420. Kind of experiment: Antibacterial testing, broth microdilution (CLSI). Type of experiment: cell-based. The settings on record: Acinetobacter baumannii, NCTC13420. Here is the method: (§1) Antibacterial testing was performed for Acinetobacter baumannii NCTC 13420, E. coli ATCC 25922, M. smegmatis ATCC 19420, Pseudomonas aeruginosa ATCC 27853 and Staphylococcus aureus ATCC 29213, using the broth microdilution method under CLSI guidelines[19] (Table 1). The agar dilution method was additionally performed for M. smegmatis under EUCAST guidelines.[20]
(In broth dilution the organism is exposed to a series of concentrations in liquid medium.)

Another experiment concerns E. coli ATCC 25922. Kind of experiment: Antibacterial testing, broth microdilution (CLSI). Type of experiment: cell-based. The conditions noted are these: Escherichia coli. The procedure:
as §1

A further experiment relates to P. aeruginosa ATCC 27853. Kind of experiment: Antibacterial testing, broth microdilution (CLSI). Type of experiment: cell-based. The conditions noted are these: Pseudomonas aeruginosa, ATCC27853. The procedure: as §1
The test system of the next experiment is S. aureus ATCC 29213. Kind of experiment: Antibacterial testing, broth microdilution (CLSI). Type of experiment: cell-based. The conditions noted are these: Staphylococcus aureus, ATCC29213. Here is the method:
as §1

Another experiment concerns M. smegmatis ATCC 19420. Kind of experiment: Antibacterial testing, broth microdilution (CLSI). Type of experiment: cell-based, Mycobacterium smegmatis. The conditions noted are these: Mycolicibacterium smegmatis. Here is the method:
as §1

Experiment [1] deals with T1, M. tuberculosis gyrase (Mycobacterium tuberculosis, UniProt P9WG45).
T1 construct: Both the GyrB and GyrBA constructs were altered by deleting the N-terminal 40 amino acids; made in house
Kind of experiment: biochemical. The settings on record: 74 nM of each gyrase subunit, 1% DMSO; read-out: IC50 (apparent), gyrase supercoiling.

Experiment [2] deals with T2, M. tuberculosis GyrBA fusion protein (Mycobacterium tuberculosis, UniProt P9WG45+P9WG47).
T2 construct: Both the GyrB and GyrBA constructs were altered by deleting the N-terminal 40 amino acids; made in house; host or cells: E. coli Rosetta 2 (pLysS)
Kind of experiment: biochemical.

Experiment [3] deals with T1, M. tuberculosis gyrase. Kind of experiment: ATP-independent relaxation of supercoiled DNA. The class given is biochemical. The settings on record: absence of ATP. The text has this:
In the presence of FQs, gyrase can cleave DNA due to the cleavage complex being stabilized.[35]

Experiment [4] addresses T1, M. tuberculosis gyrase. Kind of experiment: DNA cleavage assay (cleavage complex stabilisation). The class given is biochemical. The settings on record: 20 nM gyrase, 1% DMSO. The procedure: Figure S1. […] DNA cleavage assays were carried out as previously described;^11 these are essentially the same as supercoiling assays, except that the reactions are terminated by the addition of SDS and proteinase K, and incubated for a further 30 mins at 37°C. Samples contained 20 nM gyrase and 1% DMSO, except where indicated, and Moxifloxacin, Redx03863 or Redx04739, as indicated. Agarose gels (1%) were run in the presence of 0.5 µg/mL ethidium bromide. – indicates no gyrase; + and all other lanes contain gyrase. nc = nicked circular DNA; l = linear; cc = closed circular.

The subject of experiment [5] is M. smegmatis 4x03863 Mutant 1. Kind of experiment: microbe, parasite or virus in culture. The class given is cell-based. The settings on record: Mycolicibacterium smegmatis, read-out: MIC100.
For experiment [6], the system named is M. smegmatis 4x03863 Mutant 3. Kind of experiment: microbe, parasite or virus in culture. The class given is cell-based. The settings on record: Mycolicibacterium smegmatis, read-out: MIC100.
The subject of experiment [7] is M. smegmatis 4x03863 Mutant 4. Kind of experiment: microbe, parasite or virus in culture. The class given is cell-based. The conditions noted are these: Mycolicibacterium smegmatis, read-out: MIC100.
A further experiment relates to E. coli 2x03863 Mutant. Kind of experiment: microbe, parasite or virus in culture. The class given is cell-based. The settings on record: Escherichia coli, read-out: MIC100.
Experiment [8] deals with M. smegmatis 4x03863 Mutant 2 (GyrB Gly83Ser).
The mark [9] stands for this setting: ATCC25922, E. coli ATCC 25922, broth microdilution, read-out: MIC.
Where [10] appears, read: E. coli ATCC25922 (WT), read-out: MIC100.
Setting [11] is: ATCC19420, M. smegmatis ATCC 19420, broth microdilution, read-out: MIC.
The mark [12] stands for this setting: M. smegmatis ATCC19420 (WT), read-out: MIC100.
[13] abbreviates: GyrBA fusion protein at 200 nM, linear pBR322 DNA 20 μg/mL, read-out: apparent IC50, gyrase ATPase activity.
The mark [14] stands for this setting: gyrase 200 nM, IC50 lower than this not determinable, read-out: IC50, gyrase ATPase reaction.

In the case of `CNc1cc(F)cc2c1[nH]c1nc(Oc3cnc(C)nc3)nc(N3C[C@@H]4[C@@H](N)[C@@H]4C3)c12` [Redx03863], the MIC amounted to 0.031 µg/mL (≈ 0.0737 µM) in the experiment on A. baumannii NCTC 13420; 0.016 µg/mL (≈ 0.0381 µM) with E. coli ATCC 25922 (setting [9]); 0.016 µg/mL (≈ 0.0381 µM) in the experiment with E. coli ATCC 25922 (setting [10]); 4 µg/mL (≈ 9.51 µM) with P. aeruginosa ATCC 27853; 0.125 µg/mL (≈ 0.297 µM) in the experiment with S. aureus ATCC 29213; 0.016 µg/mL (≈ 0.0381 µM) in the experiment with M. smegmatis ATCC 19420 (setting [11]). The MIC amounted to 0.016 µg/mL (≈ 0.0381 µM) with M. smegmatis ATCC 19420 (setting [12]); 0.25 µg/mL (≈ 0.595 µM) in experiment [5]; 0.125 µg/mL (≈ 0.297 µM) in experiment [6]; 0.25 µg/mL (≈ 0.595 µM) in experiment [7]; 32 µg/mL (≈ 76.1 µM) in the experiment on E. coli 2x03863 Mutant. The pIC50 at M. tuberculosis gyrase [1] was 8.05; in experiment [2] (setting [13]), 6.77; in experiment [2] (setting [14]), approximately 6.70. Also, the “inhibition of relaxation of supercoiled DNA” value at M. tuberculosis gyrase [3] is “did not inhibit”. Further, on M. tuberculosis gyrase [4], the “stabilization of the cleavage complex” value is listed as “did not stabilize the cleavage complex”. The “increase in resistance of mutant strain” value in [8] is 16 fold.

Take `CNc1cc(F)cc2c1[nH]c1nc(CNC(=O)c3cnco3)nc(N3CCC(N)C3)c12` (centres unmarked) [Redx04739]: the MIC against A. baumannii NCTC 13420 came out at 64 µg/mL (≈ 151 µM); in the experiment on E. coli ATCC 25922 (setting [9]), 8 µg/mL (≈ 18.8 µM); with E. coli ATCC 25922 (setting [10]), 8 µg/mL (≈ 18.8 µM); with P. aeruginosa ATCC 27853, 32 µg/mL (≈ 75.4 µM); against S. aureus ATCC 29213 it was 8 µg/mL (≈ 18.8 µM); in the experiment with M. smegmatis ATCC 19420 (setting [11]), 0.25 µg/mL (≈ 0.589 µM). In addition, the MIC was 0.5 µg/mL (≈ 1.18 µM) in the experiment with M. smegmatis ATCC 19420 (setting [12]); 4 µg/mL (≈ 9.42 µM) in experiment [5]; 4 µg/mL (≈ 9.42 µM) in experiment [6]; 2 µg/mL (≈ 4.71 µM) in [7]; more than 64 µg/mL in the experiment with E. coli 2x03863 Mutant. The pIC50 at M. tuberculosis gyrase [1] is 7.52; in [2] (setting [13]) it was 6.68; in experiment [2] (setting [14]), approximately 6.70. Besides, the “inhibition of relaxation of supercoiled DNA” value against M. tuberculosis gyrase [3] is on record as “did not inhibit”. For the same compound, the “stabilization of the cleavage complex” value at M. tuberculosis gyrase [4] was “did not stabilize the cleavage complex”. In addition, the “increase in resistance of mutant strain” value in experiment [8] came out at 8 fold.

For `COc1c(N2C[C@@H]3CCCN[C@@H]3C2)c(F)cc2c(=O)c(C(=O)O)cn(C3CC3)c12` [Moxifloxacin, reference compound], the MIC was 0.016 µg/mL (≈ 0.0399 µM) in the experiment on E. coli ATCC 25922 (setting [10]); 0.125 µg/mL (≈ 0.311 µM) in the experiment with M. smegmatis ATCC 19420 (setting [12]); less than 0.125 µg/mL in experiment [5]; less than 0.125 µg/mL in experiment [6]; less than 0.125 µg/mL in [7]; 0.016 µg/mL (≈ 0.0399 µM) in the experiment on E. coli 2x03863 Mutant.

Consider `NNC(=O)c1ccncc1` [Isoniazid], for which the MIC was 32 µg/mL (≈ 233 µM) in the experiment on M. smegmatis ATCC 19420 (setting [12]), 32 µg/mL (≈ 233 µM) in [5], 16 µg/mL (≈ 117 µM) in [6] and 32 µg/mL (≈ 233 µM) in experiment [7].

Turning to `CO[C@@H]1[C@@H](OC(N)=O)[C@@H](O)[C@H](Oc2ccc3c(O)c(NC(=O)c4ccc(O)c(CC=C(C)C)c4)c(=O)oc3c2C)OC1(C)C` [novobiocin, reference compound], the MIC in the experiment with E. coli ATCC 25922 (setting [10]) is 64 µg/mL (≈ 104 µM); in the experiment on M. smegmatis ATCC 19420 (setting [12]), 2 µg/mL (≈ 3.26 µM); in experiment [5] it was 4 µg/mL (≈ 6.53 µM); in [6], 8 µg/mL (≈ 13.1 µM); in experiment [7], 4 µg/mL (≈ 6.53 µM); in the experiment on E. coli 2x03863 Mutant, 0.5 µg/mL (≈ 0.816 µM).

The pIC50 is the negative decadic logarithm of the IC50, by convention in mol/L.
